Legend:
C2C12 myoblasts = assay: C2C12 myoblast proliferation assay (methylene blue endpoint); type: cell-based, murine; details: recombinant myostatin at 2.25 μg/ml in control medium
Description: A polypeptide of the invention, or a fragment, variant or derivative thereof has the biological function of antagonising myostatin activity. To determine whether a polypeptide of the invention, or a fragment, variant or derivative thereof, is able to antagonise myostatin activity, such activity can be tested by growing myoblasts in the presence or absence (control) of a candidate polypeptide of the invention. […]
The myoblast proliferation assay was carried out in uncoated 96-well microtitre plates. C2C12 cultures were seeded at 1000 cells/well. Following a 16-hour attachment period, test media containing either recombinant wild type myostatin or different myostatin antagonists were added and cells were incubated for a further 48 or 72 hour period. For competition assay, wild type myostatin was competed with different concentrations of myostatin antagonists prior to the addition into the media. After the incubation period, proliferation was assessed using methylene blue photometric endpoint assay as previously described (Thomas et al, 2000).

primary myoblasts = assay: Myoblast chemotaxis assay, effect of recombinant myostatin; type: cell-based; details: recombinant myostatin at 2.5 μg/ml in control (CEE) medium; myoblasts from old (2 year old) mice
Description: Primary myoblasts were cultured from the hind limb muscle of young (4 to 6 week old) or old (24 month old) mice, according to the published protocols (Allen et al., 1997; Partridge, 1997). Briefly, muscles were minced, and digested in 0.2% collagenase type 1A for 90 min. Cultures were enriched for myoblasts by pre-plating on uncoated plates for 3 hours. Myoblast cultures were maintained in growth media (GM) supplemented with 20% fetal calf serum (FCS), 10% HS and 1% CEE on 10% Matrigel coated plates, at 37° C./5% CO2. The extent of culture purity was assessed by flow cytometry analysis of MyoD expression after 48 hours in culture. Cells were harvested using trypsin, suspended at a concentration of 10^6 cells/200 μl and fixed overnight in 5 ml 70% ethanol at −20° C. Staining was performed for 30 min at room temperature using rabbit polyclonal anti-MyoD, 1:200 (Santa Cruz), followed by Alexa fluor 488 anti-rabbit conjugate, 1:500 (Molecular Probes). Analysis was carried out in duplicate with 10^4 cell events collected in each assay. Debris was excluded by gating on forward and side scatter profiles. Cells were analyzed by FACScan (Becton Dickinson). […]
For the chemotaxis assay of myoblasts, a first assay was carried out on myoblasts from 2 year old mice as follows. […] Migrated cells were counted on four representative fields per membrane and the average number plotted. […]

p-FoxO1 = assay: In vitro cancer cachexia trial: p-FoxO1 Western blot in C2C12 myotubes; type: cell-based, murine; details: 6 μg/mL recombinant Myostatin; 24 hour treatment; C2C12 myotubes
Description: C2C12 cells were differentiated for 72 hours in differentiation media (DMEM+2% HS). Following this period of differentiation the myotubes were tested with recombinant myostatin at 6 μg/mL or a combination of both myostatin and 300 recombinant protein at 30, 60, 90 or 120 μg/mL for further 24 hours to determine if 300 can rescue myostatin-mediated muscle wasting in vitro. Gene expression changes of intermediate signalling molecules critical in myostatin-mediated cachexia were analysed. Therefore, protein was isolated from cells and Western blot analysis was performed to measure protein expression levels for p-FoxO1, which we have shown to be a critical signalling intermediates in Myostatin-mediated cachexia (McFarlane et al 2006).

recombinant myostatin: recombinant wild type myostatin (GDF-8), negative regulator of muscle growth, added to inhibit myoblasts [reference compound]
inhibition of myoblast proliferation (C2C12 myoblasts; after 48 hours): 25%
inhibition of myoblast proliferation (C2C12 myoblasts; after 72 hours): about 10%
decrease in the number of migrated myoblasts (primary myoblasts): approximately 78%
p-FoxO1 expression (normalised to total FoxO1) (p-FoxO1): down-regulation
